Columns and labels:
[1] = target: T1, Thymidylate synthase (EC 2.1.1.45) (TS) (TSase) (Escherichia coli, UniProt E2QDN0); test: Inhibition of Escherichia coli TS assessed as oxidation of tetrahydrofolate to dihydrofolate after 2 to 12 mins by spectrophotometry
T1 sequence (E2QDN0 whole entry): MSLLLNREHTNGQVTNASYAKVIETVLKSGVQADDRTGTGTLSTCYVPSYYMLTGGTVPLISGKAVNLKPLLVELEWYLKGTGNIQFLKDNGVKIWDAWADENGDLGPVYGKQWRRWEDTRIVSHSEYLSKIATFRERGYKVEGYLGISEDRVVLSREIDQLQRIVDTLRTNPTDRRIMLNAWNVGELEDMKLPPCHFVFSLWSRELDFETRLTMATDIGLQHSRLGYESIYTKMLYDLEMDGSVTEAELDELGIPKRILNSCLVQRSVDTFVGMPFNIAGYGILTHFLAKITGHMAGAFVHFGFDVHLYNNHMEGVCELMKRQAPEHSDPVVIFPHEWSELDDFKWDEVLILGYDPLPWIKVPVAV

Thymidylate synthase [2] = target: T2, Thymidylate synthase (Homo sapiens, UniProt P04818); test: Inhibition of human TS assessed as oxidation of tetrahydrofolate to dihydrofolate after 2 to 12 mins by spectrophotometry
Target sequence in this assay (P04818 whole entry): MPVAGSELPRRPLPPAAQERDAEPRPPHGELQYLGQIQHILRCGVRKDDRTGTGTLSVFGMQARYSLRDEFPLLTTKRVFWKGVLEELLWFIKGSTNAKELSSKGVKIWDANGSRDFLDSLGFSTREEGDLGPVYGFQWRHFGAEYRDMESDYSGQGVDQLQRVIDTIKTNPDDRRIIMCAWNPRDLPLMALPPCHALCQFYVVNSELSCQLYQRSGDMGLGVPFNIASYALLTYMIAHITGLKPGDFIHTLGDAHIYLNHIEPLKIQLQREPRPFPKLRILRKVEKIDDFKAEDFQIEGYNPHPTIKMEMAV

[3] = target: T3, Bifunctional dihydrofolate reductase-thymidylate synthase (Toxoplasma gondii, UniProt Q07422); test: Inhibition of Toxoplasma gondii TS assessed as oxidation of tetrahydrofolate to dihydrofolate after 2 to 12 mins by spectrophotometry
T3 sequence (Q07422 whole entry): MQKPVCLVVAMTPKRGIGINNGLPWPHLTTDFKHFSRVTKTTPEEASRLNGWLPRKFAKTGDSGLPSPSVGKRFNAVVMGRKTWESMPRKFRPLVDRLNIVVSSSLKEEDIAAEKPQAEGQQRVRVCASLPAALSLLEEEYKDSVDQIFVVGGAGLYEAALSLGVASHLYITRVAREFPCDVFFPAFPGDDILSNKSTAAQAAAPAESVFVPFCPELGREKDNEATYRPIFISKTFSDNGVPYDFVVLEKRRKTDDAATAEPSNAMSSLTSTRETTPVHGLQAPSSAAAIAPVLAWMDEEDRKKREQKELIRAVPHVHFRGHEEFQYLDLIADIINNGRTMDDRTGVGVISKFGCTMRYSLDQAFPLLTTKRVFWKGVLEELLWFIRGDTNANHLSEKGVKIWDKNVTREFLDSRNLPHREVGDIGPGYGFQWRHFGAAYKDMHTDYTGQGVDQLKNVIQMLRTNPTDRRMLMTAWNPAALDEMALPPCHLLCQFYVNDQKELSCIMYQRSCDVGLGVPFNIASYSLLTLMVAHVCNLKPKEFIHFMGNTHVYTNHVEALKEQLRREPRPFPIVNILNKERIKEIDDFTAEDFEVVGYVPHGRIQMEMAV

Dihydrofolate reductase [4] = target: T4, Dihydrofolate reductase (Homo sapiens, UniProt P00374); test: Inhibition of human DHFR by spectrophotometry
T4 sequence (P00374 whole entry): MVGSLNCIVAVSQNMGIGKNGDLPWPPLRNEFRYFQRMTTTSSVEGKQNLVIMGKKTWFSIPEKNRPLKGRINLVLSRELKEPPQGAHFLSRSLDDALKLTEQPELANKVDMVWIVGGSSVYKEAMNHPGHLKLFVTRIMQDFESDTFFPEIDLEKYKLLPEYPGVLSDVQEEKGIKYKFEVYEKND

Dihydrofolate reductase [5] = target: T5, Dihydrofolate reductase (Escherichia coli, UniProt P0ABQ4); test: Inhibition of Escherichia coli DHFR by spectrophotometry
T5 sequence (P0ABQ4 whole entry): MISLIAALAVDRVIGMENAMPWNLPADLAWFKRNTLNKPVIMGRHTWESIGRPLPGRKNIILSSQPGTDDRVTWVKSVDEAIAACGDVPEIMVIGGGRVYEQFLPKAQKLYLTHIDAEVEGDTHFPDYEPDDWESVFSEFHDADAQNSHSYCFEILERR

[6] = target: T3, Bifunctional dihydrofolate reductase-thymidylate synthase; test: Inhibition of Toxoplasma gondii DHFR by spectrophotometry
Thymidylate synthase [7] = target: T2, Thymidylate synthase; test: Ratio of premetrexed IC50 to compound IC50 for human TS
Target sequence in this assay (P04818 2-313 limits assumed): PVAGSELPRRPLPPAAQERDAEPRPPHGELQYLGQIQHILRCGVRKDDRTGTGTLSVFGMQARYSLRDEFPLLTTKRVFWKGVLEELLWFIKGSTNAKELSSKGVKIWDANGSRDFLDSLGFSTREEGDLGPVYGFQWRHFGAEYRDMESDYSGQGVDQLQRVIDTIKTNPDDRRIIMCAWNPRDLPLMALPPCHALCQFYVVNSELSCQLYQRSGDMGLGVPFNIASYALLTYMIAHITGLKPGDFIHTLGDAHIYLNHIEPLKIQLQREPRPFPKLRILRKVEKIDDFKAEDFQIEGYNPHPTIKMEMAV

How did the IC50 [1] turn out when Nc1nc2[nH]cc(CCc3ccc(C(=O)N[C@@H](CCC(=O)O)C(=O)O)cc3)c2c(=O)[nH]1 [PEMETREXED] was run?
Its IC50 is 76000 nM.

With Cc1nc2sc3cccc(CNc4ccc5c(c4)CN([C@@H](CCC(=O)O)C(=O)O)C5=O)c3c2c(=O)[nH]1 as the compound, how does the IC50 (Thymidylate synthase [2]) read?
The IC50 was 800 nM.

What about the IC50 [1] of the same compound?
Its IC50 is 850 nM.

And the IC50 [3]?
Its IC50 is 3700 nM.

What about the IC50 (Dihydrofolate reductase [4]) of the same compound?
The IC50 was over 20000 nM.

And the IC50 (Dihydrofolate reductase [5])?
Its IC50 is over 20000 nM.

What about the IC50 [6] of the same compound?
The IC50 was 1800 nM.

What about the Ratio IC50 (Thymidylate synthase [7]) of the same compound?
Its Ratio IC50 is 50.

How did the IC50 (Thymidylate synthase [2]) turn out when Nc1nc2sc3cccc(CNc4ccc(C(=O)N[C@@H](CCC(=O)O)C(=O)O)cc4)c3c2c(=O)[nH]1 was run?
Its IC50 is 68 nM.

And the IC50 [1]?
Its IC50 is 17 nM.

And the IC50 [3]?
The IC50 was 140 nM.

And the IC50 (Dihydrofolate reductase [4])?
The IC50 was 90 nM.

What about the IC50 (Dihydrofolate reductase [5]) of the same compound?
The IC50 was 400 nM.

What about the IC50 [6] of the same compound?
Its IC50 is 20 nM.

And the Ratio IC50 (Thymidylate synthase [7])?
The Ratio IC50 was 50.

Which IC50 (Thymidylate synthase [2]) does the source give for Nc1nc2sc3cccc(CNc4ccc5c(c4)CN([C@@H](CCC(=O)O)C(=O)O)C5=O)c3c2c(=O)[nH]1 here?
The IC50 was 34 nM.

What about the IC50 [1] of the same compound?
The IC50 was 50 nM.

And the IC50 [3]?
Its IC50 is 170 nM.

And the IC50 (Dihydrofolate reductase [4])?
The IC50 was 100 nM.

What about the IC50 (Dihydrofolate reductase [5]) of the same compound?
Its IC50 is 400 nM.

What about the IC50 [6] of the same compound?
The IC50 was 10 nM.

What about the Ratio IC50 (Thymidylate synthase [7]) of the same compound?
Its Ratio IC50 is 50.

What does the source list for Cc1nc2ccc3ccc(CNc4ccc5c(c4)CN([C@@H](CCC(=O)O)C(=O)O)C5=O)cc3c2c(=O)[nH]1 [OSI-7904]?
IC50 [1]: 23 nM; IC50 [3]: 27 nM; IC50 (Dihydrofolate reductase [4]): > 20000 nM; IC50 (Dihydrofolate reductase [5]): 20000 nM; IC50 [6]: 710 nM

What does the source list for Cc1nc2sc3cccc(CNc4ccc(C(=O)N[C@@H](CCC(=O)O)C(=O)O)cc4)c3c2c(=O)[nH]1?
IC50 (Thymidylate synthase [2]): 260 nM; IC50 [1]: 820 nM; IC50 [3]: 1700 nM; IC50 (Dihydrofolate reductase [4]): > 20000 nM; IC50 (Dihydrofolate reductase [5]): 15000 nM; IC50 [6]: 1400 nM; Ratio IC50 (Thymidylate synthase [7]): 50

With Cc1[nH]c2nc(N)[nH]c(=O)c2c1Sc1ccc(C(=O)N[C@@H](CCC(=O)O)C(=O)O)cc1 as the compound, how does the IC50 [3] read?
Its IC50 is 90 nM.

What about the IC50 (Dihydrofolate reductase [5]) of the same compound?
Its IC50 is 22000 nM.

And the IC50 [6]?
The IC50 was 230 nM.
